In paper PMC12301332, “Biased antagonism of a series of bicyclic CXCR2 intracellular allosteric modulators” (Frontiers in Pharmacology, 2025):

Each compound was assayed against T1, CXCR2 (Homo sapiens, UniProt P25025) (assay: NanoBRET β-arrestin1 recruitment inhibition assay (NanoLux) in HEK293A cells). Conditions: CXCL1 at EC80; mean, n = 3; read-out: IC50 βarr1.
T1 construct: expressed in transfected cells
T1 sequence (P25025 1-360): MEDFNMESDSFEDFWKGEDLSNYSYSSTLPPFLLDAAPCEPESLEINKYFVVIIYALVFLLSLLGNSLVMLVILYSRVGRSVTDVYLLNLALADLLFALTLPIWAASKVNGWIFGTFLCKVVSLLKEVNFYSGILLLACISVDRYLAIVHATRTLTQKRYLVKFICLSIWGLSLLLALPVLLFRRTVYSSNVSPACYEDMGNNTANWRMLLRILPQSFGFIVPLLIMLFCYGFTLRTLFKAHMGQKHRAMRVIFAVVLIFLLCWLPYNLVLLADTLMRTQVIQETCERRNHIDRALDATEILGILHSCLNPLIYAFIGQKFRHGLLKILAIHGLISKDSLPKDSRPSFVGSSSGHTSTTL
Format: cell-based
Description: Cells were trypsinized and resuspended at 3 × 10^5 cell/mL in the growth medium, whereafter they were incubated for 2 hours at RT. Cells were transfected in suspension using FuGENE® HD Transfection Reagent at a 3:1 reagent to DNA ratio in Opti-MEMTM I Reduced-Serum Medium, with the final DNA concentration of 1 μg/μL. The transfection mixture was incubated for 10 min at RT before adding it to the cell suspension. Transfected cells were seeded at 3.0 × 10^4 cells/well in a white, clear, flat-bottom 96-well plate coated with 100 μg/mL poly-D-lysin ([…], Sigma Aldrich) and incubated for 48 h at 37°C and 5% CO2. HEK293A cells were transiently co-transfected with plasmids encoding β-arrestin1 protein tagged with NLuc (donor) and CXCR2 protein tagged with mNeonGreen (mNG) acceptor in a 1:10 donor to acceptor ratio, as described previously ([Luís et al., 2022]). All subsequent steps are identical to those in “NanoBRET-based G protein activation inhibition assay,” which are described above. Measurements were acquired using a 440- to 480-nm donor emission filter (#0200-6179, Molecular Devices) and a 515- to 575-nm acceptor emission filter (#0200-6203, Molecular Devices) BRET ratios were extracted from ScreenWorks software (Molecular Devices) and represent the ratio between the acceptor emission of […]2 or mNG (G protein or β-arrestin recruitment, respectively) and NLuc donor emission. The basal BRET ratio was defined as the average BRET ratio of the five consecutive readings preceding ligand addition. Changes in BRET values post ligand administration (ΔBRET) were calculated for each well as a percentage difference to the previously defined basal BRET ratio. Average ΔBRET values were baseline corrected by subtracting the average negative control BRET ratio (unstimulated condition). […] AUCs were normalized to the positive control (stimulated condition); whereafter, dose-response curves were fitted to log (inhibitor) vs response (three parameters) in GraphPad 10.2.0 (GraphPad Software). […] Calculation 1: calculation of the BRET signal. • 1. […] NC correctedΔBRET=Δ[…]. • 4. a. Neg AUC of NC correctedΔBRET=Gα activation read out. b. Pos AUC of NC correctedΔBRET=β-arrestin recruitment.

| IC50 [µM] | Structure (SMILES) |
| --- | --- |
| 3.51 ± 0.83 | CC(CO)Nc1nc(SCc2cccc(F)c2F)nc2[nH]cnc12 (stereo not shown) [MVH-15] |

Same assay, conditions: CXCL1 at EC80; normalized to Imax of navarixin = 100%; n = 3

| Imax βarr1 (maximum observed inhibitory effect) [%] | Structure (SMILES) |
| --- | --- |
| 100 | CC(CO)Nc1nc(SCc2cccc(F)c2F)nc2[nH]cnc12 (stereo not shown) [MVH-15] |

Same assay, conditions: CXCL2 at EC80; mean, n = 3; read-out: IC50 βarr1

| IC50 [µM] | Structure (SMILES) |
| --- | --- |
| 2.06 ± 0.57 | CC(CO)Nc1nc(SCc2cccc(F)c2F)nc2[nH]cnc12 (stereo not shown) [MVH-15] |

Same assay, conditions: CXCL2 at EC80; normalized to Imax of navarixin = 100%; n = 3

| Imax βarr1 (maximum observed inhibitory effect) [%] | Structure (SMILES) |
| --- | --- |
| 100 | CC(CO)Nc1nc(SCc2cccc(F)c2F)nc2[nH]cnc12 (stereo not shown) [MVH-15] |

Same assay, conditions: CXCL3 at EC80; mean, n = 3; read-out: IC50 βarr1

| IC50 [µM] | Structure (SMILES) |
| --- | --- |
| 4.29 ± 1.16 | CC(CO)Nc1nc(SCc2cccc(F)c2F)nc2[nH]cnc12 (stereo not shown) [MVH-15] |

Same assay, conditions: CXCL3 at EC80; normalized to Imax of navarixin = 100%; n = 3

| Imax βarr1 (maximum observed inhibitory effect) [%] | Structure (SMILES) |
| --- | --- |
| 100 | CC(CO)Nc1nc(SCc2cccc(F)c2F)nc2[nH]cnc12 (stereo not shown) [MVH-15] |

Same assay, conditions: CXCL5 at EC80; mean, n = 3; read-out: IC50 βarr1

| IC50 [µM] | Structure (SMILES) |
| --- | --- |
| 2.1 ± 0.36 | CC(CO)Nc1nc(SCc2cccc(F)c2F)nc2[nH]cnc12 (stereo not shown) [MVH-15] |

Same assay, conditions: CXCL5 at EC80; normalized to Imax of navarixin = 100%; n = 3

| Imax βarr1 (maximum observed inhibitory effect) [%] | Structure (SMILES) |
| --- | --- |
| 100 | CC(CO)Nc1nc(SCc2cccc(F)c2F)nc2[nH]cnc12 (stereo not shown) [MVH-15] |

Same assay, conditions: CXCL6 at EC80; mean, n = 3; read-out: IC50 βarr1

| IC50 [µM] | Structure (SMILES) |
| --- | --- |
| 2.28 ± 0.57 | CC(CO)Nc1nc(SCc2cccc(F)c2F)nc2[nH]cnc12 (stereo not shown) [MVH-15] |

Same assay, conditions: CXCL6 at EC80; normalized to Imax of navarixin = 100%; n = 3

| Imax βarr1 (maximum observed inhibitory effect) [%] | Structure (SMILES) |
| --- | --- |
| 100 | CC(CO)Nc1nc(SCc2cccc(F)c2F)nc2[nH]cnc12 (stereo not shown) [MVH-15] |

Same assay, conditions: CXCL7 at EC80; mean, n = 3; read-out: IC50 βarr1

| IC50 [µM] | Structure (SMILES) |
| --- | --- |
| 0.7 ± 0.14 | CC(CO)Nc1nc(SCc2cccc(F)c2F)nc2[nH]cnc12 (stereo not shown) [MVH-15] |

Same assay, conditions: CXCL7 at EC80; normalized to Imax of navarixin = 100%; n = 3

| Imax βarr1 (maximum observed inhibitory effect) [%] | Structure (SMILES) |
| --- | --- |
| 100 | CC(CO)Nc1nc(SCc2cccc(F)c2F)nc2[nH]cnc12 (stereo not shown) [MVH-15] |

Same assay, conditions: CXCL8 at EC80; mean, n = 3; read-out: IC50 βarr1

| IC50 [µM] | Structure (SMILES) |
| --- | --- |
| 4.07 ± 1.6 | CC(CO)Nc1nc(SCc2cccc(F)c2F)nc2[nH]cnc12 (stereo not shown) [MVH-15] |

Same assay, conditions: CXCL8 at EC80; normalized to Imax of navarixin = 100%; n = 3

| Imax βarr1 (maximum observed inhibitory effect) [%] | Structure (SMILES) |
| --- | --- |
| 100 | CC(CO)Nc1nc(SCc2cccc(F)c2F)nc2[nH]cnc12 (stereo not shown) [MVH-15] |

These compounds were tested against T1, CXCR2 (assay: NanoBRET-based G protein activation inhibition assay (REGA-SIGN Gαi1 dissociation) in HEK293A.CXCR2 cells). Conditions: CXCL1 at EC80; mean, n = 3.
Format: cell-based
Description: Cells were trypsinized and resuspended at 3 × 10^5 cell/mL in the growth medium, whereafter they were incubated for 2 hours at RT. Cells were transfected in suspension using FuGENE® HD Transfection Reagent at a 3:1 reagent to DNA ratio in Opti-MEMTM I Reduced-Serum Medium, with the final DNA concentration of 1 μg/μL. The transfection mixture was incubated for 10 min at RT before adding it to the cell suspension. Transfected cells were seeded at 3.0 × 10^4 cells/well in a white, clear, flat-bottom 96-well plate coated with 100 μg/mL poly-D-lysin ([…], Sigma Aldrich) and incubated for 48 h at 37°C and 5% CO2. […] (2023)]. Following the 48-h incubation period, cells were washed with the assay buffer. Compounds were serially diluted in 1:500 Nano-Glo® Vivazine^TM working solution (#N2581, Promega), and 90 μL of compound/Vivazine mix was added, followed by incubation for 45 min at 37°C and 5% CO2. Plates were transferred to the FLIPR Penta system (Molecular Devices) at 37°C, and all steps onward are automated and performed by the FLIPR Penta system. After a 10-min equilibration period, the baseline BRET signal was determined by five consecutive reads followed by automatic administration of 10 μL of 10× ligand (Table 1) to the cell plate. Changes in the BRET signal was measured for 10 min, with each read spaced by 2.5 s. […] BRET ratios were extracted from ScreenWorks software (Molecular Devices) and represent the ratio between the acceptor emission of […]2 or mNG (G protein or β-arrestin recruitment, respectively) and NLuc donor emission. The basal BRET ratio was defined as the average BRET ratio of the five consecutive readings preceding ligand addition. Changes in BRET values post ligand administration (ΔBRET) were calculated for each well as a percentage difference to the previously defined basal BRET ratio. Average ΔBRET values were baseline corrected by subtracting the average negative control BRET ratio (unstimulated condition). […] AUCs were normalized to the positive control (stimulated condition); whereafter, dose-response curves were fitted to log (inhibitor) vs response (three parameters) in GraphPad 10.2.0 (GraphPad Software). […] Calculation 1: calculation of the BRET signal. • 1. […] NC correctedΔBRET=Δ[…]. • 4. a. Neg AUC of NC correctedΔBRET=Gα activation read out. b. Pos AUC of NC correctedΔBRET=β-arrestin recruitment.

| IC50 [µM] | Structure (SMILES) |
| --- | --- |
| > 15 | CC(CO)Nc1nc(SCc2cccc(F)c2F)nc2[nH]cnc12 (stereo not shown) [MVH-15] |

Same assay, conditions: CXCL1 at EC80; normalized to Imax of navarixin = 100%; n = 3

| Imax Gαi1 (maximum observed inhibitory effect) [%] | Structure (SMILES) |
| --- | --- |
| <50 | CC(CO)Nc1nc(SCc2cccc(F)c2F)nc2[nH]cnc12 (stereo not shown) [MVH-15] |

Same assay, conditions: CXCL2 at EC80; mean, n = 3

| IC50 [µM] | Structure (SMILES) |
| --- | --- |
| > 15 | CC(CO)Nc1nc(SCc2cccc(F)c2F)nc2[nH]cnc12 (stereo not shown) [MVH-15] |

Same assay, conditions: CXCL2 at EC80; normalized to Imax of navarixin = 100%; n = 3

| Imax Gαi1 (maximum observed inhibitory effect) [%] | Structure (SMILES) |
| --- | --- |
| <50 | CC(CO)Nc1nc(SCc2cccc(F)c2F)nc2[nH]cnc12 (stereo not shown) [MVH-15] |

Same assay, conditions: CXCL3 at EC80; mean, n = 3

| IC50 [µM] | Structure (SMILES) |
| --- | --- |
| > 15 | CC(CO)Nc1nc(SCc2cccc(F)c2F)nc2[nH]cnc12 (stereo not shown) [MVH-15] |

Same assay, conditions: CXCL3 at EC80; normalized to Imax of navarixin = 100%; n = 3

| Imax Gαi1 (maximum observed inhibitory effect) [%] | Structure (SMILES) |
| --- | --- |
| <50 | CC(CO)Nc1nc(SCc2cccc(F)c2F)nc2[nH]cnc12 (stereo not shown) [MVH-15] |

Same assay, conditions: CXCL5 at EC80; mean, n = 3

| IC50 [µM] | Structure (SMILES) |
| --- | --- |
| > 15 | CC(CO)Nc1nc(SCc2cccc(F)c2F)nc2[nH]cnc12 (stereo not shown) [MVH-15] |

Same assay, conditions: CXCL5 at EC80; normalized to Imax of navarixin = 100%; n = 3

| Imax Gαi1 (maximum observed inhibitory effect) [%] | Structure (SMILES) |
| --- | --- |
| <50 | CC(CO)Nc1nc(SCc2cccc(F)c2F)nc2[nH]cnc12 (stereo not shown) [MVH-15] |

Same assay, conditions: CXCL6 at EC80; mean, n = 3

| IC50 [µM] | Structure (SMILES) |
| --- | --- |
| > 15 | CC(CO)Nc1nc(SCc2cccc(F)c2F)nc2[nH]cnc12 (stereo not shown) [MVH-15] |

Same assay, conditions: CXCL6 at EC80; normalized to Imax of navarixin = 100%; n = 3

| Imax Gαi1 (maximum observed inhibitory effect) [%] | Structure (SMILES) |
| --- | --- |
| <50 | CC(CO)Nc1nc(SCc2cccc(F)c2F)nc2[nH]cnc12 (stereo not shown) [MVH-15] |

Same assay, conditions: CXCL7 at EC80; mean, n = 3

| IC50 [µM] | Structure (SMILES) |
| --- | --- |
| > 15 | CC(CO)Nc1nc(SCc2cccc(F)c2F)nc2[nH]cnc12 (stereo not shown) [MVH-15] |

Same assay, conditions: CXCL7 at EC80; normalized to Imax of navarixin = 100%; n = 3

| Imax Gαi1 (maximum observed inhibitory effect) [%] | Structure (SMILES) |
| --- | --- |
| <50 | CC(CO)Nc1nc(SCc2cccc(F)c2F)nc2[nH]cnc12 (stereo not shown) [MVH-15] |

Same assay, conditions: CXCL8 at EC80; mean, n = 3

| IC50 [µM] | Structure (SMILES) |
| --- | --- |
| > 15 | CC(CO)Nc1nc(SCc2cccc(F)c2F)nc2[nH]cnc12 (stereo not shown) [MVH-15] |

Same assay, conditions: CXCL8 at EC80; normalized to Imax of navarixin = 100%; n = 3

| Imax Gαi1 (maximum observed inhibitory effect) [%] | Structure (SMILES) |
| --- | --- |
| <50 | CC(CO)Nc1nc(SCc2cccc(F)c2F)nc2[nH]cnc12 (stereo not shown) [MVH-15] |
